Laboratory results from US9034886B2, “4-aminoquinazoline derivatives and uses thereof” (Shanghai Institute of Pharmaceutical Industry, priority 2011, dated 2015).
Like-named read-outs stand apart in the source and are kept apart here.

What was measured:
HDACs = experiment: In vitro inhibition of HDACs (HDAC Inhibitor Drug Screening Kit, Biovision K340-100); assay type: biochemical
Description: The in vitro inhibitory activities of the compounds towards HDACs were tested according to the instructions in the HDAC Inhibitor Drug Screening Kit (Biovision/Catalog #K340-100).
(1) The compounds to be tested were each individually prepared as 2 mM, 200 μM and 40 μM solutions and their inhibitory activities at these concentrations were tested.

HDAC1 = HDAC1 (Homo sapiens (Human), UniProt Q13547); experiment: In vitro inhibition of subtype HDAC1 (HDAC1 Inhibitor Drug Screening Kit, Biovision); assay type: biochemical; details: read-out: % Inhibition towards HDAC1
HDAC1, sequence (Q13547 whole entry): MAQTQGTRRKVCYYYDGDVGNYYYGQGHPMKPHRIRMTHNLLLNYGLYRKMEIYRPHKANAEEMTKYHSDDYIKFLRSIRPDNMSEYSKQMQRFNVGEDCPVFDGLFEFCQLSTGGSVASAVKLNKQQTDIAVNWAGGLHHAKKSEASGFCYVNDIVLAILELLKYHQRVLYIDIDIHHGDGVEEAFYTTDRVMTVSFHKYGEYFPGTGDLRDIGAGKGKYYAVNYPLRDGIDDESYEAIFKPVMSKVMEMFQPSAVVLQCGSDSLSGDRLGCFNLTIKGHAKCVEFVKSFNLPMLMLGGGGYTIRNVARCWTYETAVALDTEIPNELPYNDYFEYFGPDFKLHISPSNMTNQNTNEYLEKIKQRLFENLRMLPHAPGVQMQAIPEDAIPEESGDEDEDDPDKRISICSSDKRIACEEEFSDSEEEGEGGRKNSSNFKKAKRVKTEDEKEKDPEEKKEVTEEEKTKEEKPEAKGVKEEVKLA
Description: The in vitro inhibitory activities of the compounds towards the subtype HDAC1 were tested according to the instructions in the HDAC1 Inhibitor Drug Screening Kit (Biovision).
(1) The compounds to be tested were each individually prepared as 10 μM and 1 μM solutions and their inhibitory activities at these concentrations were tested.
Each dilution sample was placed in two wells and the enzyme inhibition IC50 of the compound was tested.

[1] = tested on: Hut78 T lymphocytic leukemia cells; experiment: In vitro anti-proliferative effect, CCK-8 method, Hut78; assay type: cell-based
How it was run: (§1)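 K562 and Hut78 cells exposed to compounds at 100 μM and 10 μM. Percent inhibition of proliferation determined by CCK-8 read-out.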

[2] = tested on: PANC-1 human pancreatic cancer cells; experiment: In vitro anti-proliferative effect, CCK-8 method, PANC-1; assay type: cell-based
How it was run: (§2)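 Two-point screen, 100 μM and 10 μM; CCK-8 colorimetric read-out gives % growth inhibition.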

[3] = tested on: Jurkat E6-1 human T-cell lymphoma; experiment: In vitro anti-proliferative effect, CCK-8 method, Jurkat E6-1; assay type: cell-based
How it was run: as §2

[4] = tested on: K562 human chronic myelogenous leukemia cells; experiment: In vitro anti-proliferative effect, CCK-8 method, K562; assay type: cell-based
How it was run: as §1

[5] = tested on: A549 human lung cancer cells; experiment: In vitro anti-proliferative effect, CCK-8 method, A549; assay type: cell-based
How it was run: as §2

[6] = tested on: MDA-MB-435s human breast cancer cells; experiment: In vitro anti-proliferative effect, CCK-8 method, MDA-MB-435s; assay type: cell-based
How it was run: as §2

[7] = tested on: Hep3B2.1-7 human liver cancer cells; experiment: In vitro anti-proliferative effect, CCK-8 method, Hep3B; assay type: cell-based
How it was run: as §2

[8] = tested on: PC-3 human prostate cancer; experiment: In vitro anti-proliferative effect, CCK-8 method, PC-3; assay type: cell-based
How it was run: as §2

[9] = tested on: Colo320 human colorectal cancer cell lines; experiment: In vitro anti-proliferative effect, CCK-8 method, Colo320; assay type: cell-based
How it was run: as §2

[10] = Maximum tolerance dose through intragastrical administration; assay type: in vivo; details: mice, administrated intragastrically
How it was run: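 ICR mice (8˜20 g, both sexes, 10 per group) fasted 6 h, then dosed once intragastrically at 0.3 ml/10 g. Physical signs and deaths recorded at 1, 2 and 4 h, then daily with body weight over 14 days; dead animals necropsied with pathology on suspicious organs.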

hERG potassium channel = hERG potassium channel (Homo sapiens (Human), UniProt Q12809); experiment: Effects on hERG potassium channel; assay type: cell-based
hERG potassium channel, sequence (Q12809 whole entry): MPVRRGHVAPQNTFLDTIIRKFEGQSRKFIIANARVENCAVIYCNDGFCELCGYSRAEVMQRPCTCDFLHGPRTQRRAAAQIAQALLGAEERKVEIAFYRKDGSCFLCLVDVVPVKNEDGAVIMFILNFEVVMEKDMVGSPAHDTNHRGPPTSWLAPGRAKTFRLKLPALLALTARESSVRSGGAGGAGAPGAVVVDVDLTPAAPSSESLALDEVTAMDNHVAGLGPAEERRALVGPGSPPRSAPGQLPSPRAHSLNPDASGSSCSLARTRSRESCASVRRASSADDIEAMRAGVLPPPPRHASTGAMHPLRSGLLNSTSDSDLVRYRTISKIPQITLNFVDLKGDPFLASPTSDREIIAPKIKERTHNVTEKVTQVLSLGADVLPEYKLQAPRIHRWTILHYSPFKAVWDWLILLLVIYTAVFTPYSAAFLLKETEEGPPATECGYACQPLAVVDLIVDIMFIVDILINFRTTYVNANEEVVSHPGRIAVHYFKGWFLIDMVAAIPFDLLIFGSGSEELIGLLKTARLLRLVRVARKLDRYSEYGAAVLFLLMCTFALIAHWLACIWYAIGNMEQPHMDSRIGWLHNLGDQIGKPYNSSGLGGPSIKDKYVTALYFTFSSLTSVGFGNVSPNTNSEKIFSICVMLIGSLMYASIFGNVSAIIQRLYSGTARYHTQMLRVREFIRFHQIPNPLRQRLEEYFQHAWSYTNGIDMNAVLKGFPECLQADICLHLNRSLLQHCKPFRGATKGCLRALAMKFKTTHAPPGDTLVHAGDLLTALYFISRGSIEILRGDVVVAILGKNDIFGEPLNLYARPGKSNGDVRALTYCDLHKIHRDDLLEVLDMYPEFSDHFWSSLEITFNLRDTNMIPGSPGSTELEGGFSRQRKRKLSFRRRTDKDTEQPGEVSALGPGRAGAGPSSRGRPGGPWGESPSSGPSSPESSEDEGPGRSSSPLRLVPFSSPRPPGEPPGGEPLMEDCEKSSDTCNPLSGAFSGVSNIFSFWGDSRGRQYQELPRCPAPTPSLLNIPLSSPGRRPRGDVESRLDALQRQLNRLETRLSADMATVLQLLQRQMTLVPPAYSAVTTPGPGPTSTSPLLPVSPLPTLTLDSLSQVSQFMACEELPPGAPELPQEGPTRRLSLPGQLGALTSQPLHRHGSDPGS

[11] = Preliminary pharmacokinetics; details: in vivo, rat
human PC-3 tumors = experiment: Human PC-3 tumors transplanted in nude mice; assay type: in vivo; details: 50 mg/kg; for deaths, PC-3 model: 8 mice in each group
human A549 tumors = experiment: Human A549 tumors transplanted in nude mice; assay type: in vivo; details: nude mice, 50 mg/kg

COc1cccc2c(Nc3ccc(C(=O)Nc4ccccc4N)cc3)ncnc12 [Compound V-9, N-(2-aminophenyl)-4-(8-methoxy-quinazoline-4-amino)benzamide]
IC50 (HDACs): 4.91 µM
Inhibition percentage (%) towards HDACs (HDACs; 40 μM): 1.9%
Inhibition percentage (%) towards HDACs (HDACs; 200 μM): 7.8%
Inhibition percentage (%) towards HDACs (HDACs; 2 mM): 50.0%
inhibition at 1 µM (HDAC1; 1 μM): 33.8%
inhibition at 10 µM (HDAC1; 10 μM): 58.3%
IC50 ([1]; Homo sapiens, HuT78): 0.231 µM
inhibition at 10 µM ([1]; Homo sapiens, HuT78, 10 μM, read-out: Hut-78 (inhibition %)): 10.8%
inhibition at 100 µM ([1]; Homo sapiens, HuT78, 100 μM, read-out: Hut-78 (inhibition %)): 94%
inhibition at 10 µM ([2]; Homo sapiens, PANC-1, 10 μM): 22.3%
inhibition at 100 µM ([2]; Homo sapiens, PANC-1, 100 μM): 26.4%
IC50 ([3]; Homo sapiens, Jurkat E6.1): 12.4 µM
inhibition at 10 µM ([3]; Homo sapiens, Jurkat E6.1, 10 μM): 0.9%
inhibition at 100 µM ([3]; Homo sapiens, Jurkat E6.1, 100 μM): 22.8%
IC50 ([4]; Homo sapiens, K562): 19.9 µM
inhibition at 10 µM ([4]; Homo sapiens, K562, 10 μM): -2.8%
inhibition at 100 µM ([4]; Homo sapiens, K562, 100 μM): 30.3%
IC50 ([5]; Homo sapiens, A549): 29.9 µM
inhibition at 10 µM ([5]; Homo sapiens, A549, 10 μM): 24.6%
inhibition at 100 µM ([5]; Homo sapiens, A549, 100 μM): 42.3%
inhibition at 10 µM ([6]; Homo sapiens, MDA-MB-435S, 10 μM): -11.9%
inhibition at 100 µM ([6]; Homo sapiens, MDA-MB-435S, 100 μM): 11.8%
IC50 ([7]; Homo sapiens, Hep3B): 52.2 µM
inhibition at 10 µM ([7]; Homo sapiens, Hep3B cell strain, compound at 10 μM, CCK-8 method): 27%
inhibition at 100 µM ([7]; Homo sapiens, Hep3B cell strain, compound at 100 μM, CCK-8 method): 26.2%
IC50 ([8]; Homo sapiens): 12.2 µM
inhibition at 10 µM ([8]; Homo sapiens, PC-3 cell strain, compound at 10 μM, CCK-8 method): 5.1%
inhibition at 100 µM ([8]; Homo sapiens, PC-3 cell strain, compound at 100 μM, CCK-8 method): 19.3%
IC50 ([9]; Homo sapiens, COLO 320): 88.4 µM
inhibition at 10 µM ([9]; Homo sapiens, COLO 320, Colo320 cell strain, compound at 10 μM, CCK-8 method): 4.4%
inhibition at 100 µM ([9]; Homo sapiens, COLO 320, Colo320 cell strain, compound at 100 μM, CCK-8 method): 4.2%
maximum tolerance dose [10]: over 5000 mg/kg
inhibition at 10 µM (hERG potassium channel; human, hERG potassium current, 10 μM, read-out: Maximum inhibition percentage at 10 μM (%)): 21.5 ± 0.4%
IC50 (hERG potassium channel; read-out: Half inhibition concentration for the effect on hERG potassium current, IC50): > 10 µM
half-life ([11]; iv, 2 mg/kg, i.v., read-out: Intravenous half-life (converted)): 1.27 h
bioavailability ([11]; oral): 19%
half-life ([11]; oral, read-out: Oral half-life (converted)): 4.53 h
tumor inhibition %, PC-3 (human prostate cancer) (human PC-3 tumors): 36.97%
deaths, PC-3 model (human PC-3 tumors): no death

Nc1ccccc1NC(=O)c1ccc(CNC(=O)OCc2cccnc2)cc1 [MS-275, reference compound]
IC50 (HDACs): 3.52 µM
Inhibition percentage (%) towards HDACs (HDACs; 40 μM): 32.5%
Inhibition percentage (%) towards HDACs (HDACs; 200 μM): 60.5%
Inhibition percentage (%) towards HDACs (HDACs; 2 mM): 82.2%
IC50 [1]: 0.528 µM
Hut-78 (inhibition %) ([1]; 100 μM): 85.3%
PANC-1 (inhibition %) ([2]; 10 μM): 12.4%
PANC-1 (inhibition %) ([2]; 100 μM): 31.6%
IC50 [3]: 0.561 µM
Jurkat E6-1 (inhibition %) ([3]; 10 μM): 89.5%
Jurkat E6-1 (inhibition %) ([3]; 100 μM): 96.1%
K562 (inhibition %) ([4]; 10 μM): 66.2%
K562 (inhibition %) ([4]; 100 μM): 74.6%
IC50 [5]: 2.28 µM
A549 (inhibition %) ([5]; 10 μM): 58.9%
A549 (inhibition %) ([5]; 100 μM): 92.3%
435s (inhibition %) ([6]; 10 μM): 2.7%
435s (inhibition %) ([6]; 100 μM): 59.3%
IC50 [7]: 6.82 µM
Hep3B (inhibition %) 10 μM ([7]; Hep3B cell strain, compound at 10 μM, CCK-8 method): 10.8%
Hep3B (inhibition %) 100 μM ([7]; Hep3B cell strain, compound at 100 μM, CCK-8 method): 52.1%
IC50 [8]: 0.502 µM
PC-3 (inhibition %) 10 μM ([8]; PC-3 cell strain, compound at 10 μM, CCK-8 method): 12.5%
PC-3 (inhibition %) 100 μM ([8]; PC-3 cell strain, compound at 100 μM, CCK-8 method): 71.5%
IC50 [9]: 0.522 µM
Colo320 (inhibition %) 10 μM ([9]; Colo320 cell strain, compound at 10 μM, CCK-8 method): 18.0%
Colo320 (inhibition %) 100 μM ([9]; Colo320 cell strain, compound at 100 μM, CCK-8 method): 61.6%
tumor inhibition %, PC-3 (human prostate cancer) (human PC-3 tumors): 89.60%
deaths, PC-3 model (human PC-3 tumors): 4
tumor inhibition %, A549 (lung cancer) (human A549 tumors): 79.41%
deaths, A549 model (human A549 tumors; 8 mice in each group): 3
